Laboratory results published in patent EP2758042B1, “STABLE, LOW-TOXICITY, STERILIZABLE COMPOSITION FOR OPHTHALMIC DYING” (Arcadophta, priority 2011, dated 2013).

Tests used:
[1] = system: cellules rétiniennes épithéliales ARPE-19; test: Number of cells after exposure (Example 4); type: cell-based
Method: (§1) Dans cet essai, on évalue également l'influence de la présence d'eau lourde dans les solutions sur leur cytotoxicité vis-à-vis de cellules rétiniennes épithéliales ARPE-19 fournies par ATCC, dans les mêmes conditions générales que dans l'exemple 1.
(§2) Les cellules sont exposées aux solutions 30 minutes dans une première série d'essais, et cinq minutes dans une deuxième série d'essais. Des mesures de cytolyse sont réalisées 1,5 h et 48 h après ce traitement.
(§3) Les mêmes mesures sont effectuées à titre de comparaison sur composition de Monoblue® 0,15% commercialisée par la société Arcadophta, Toulouse, France, sur une solution d'eau oxygénée 100mM et sur une solution saline d'irrigation intraoculaire (BSS).

[2] = system: cellules rétiniennes épithéliales ARPE-19; test: Cytolysis after 30 min or 5 min exposure (Example 4); type: cell-based
Method: as §1, §2, §3

[3] = Exposition 5 min, culture 48 h après exposition
[4] = Exposition 30 min, culture 1 h30 après exposition

For eau oxygénée [H2O2 100mM], the “Nombre de cellules Moyenne” value [1, 3] was 129,00, the “Nombre de cellules Moyenne” value [1, 4] was 29,33 and the “% Cellules cytolysées Moyenne” value [2, 3] was 88,3%. For the same substance, the “% Cellules cytolysées Moyenne” value [2, 4] was 73,63%.
